Measurements: patent US20240376163A1, “PEPTIDE FOR INHIBITING CALCINEURIN AND USE THEREOF” (Seoul National University R&DB Foundation, priority 2023, published 2024)

System: Jurkat T cells
Test: mRNA sequencing of activated Jurkat T cells
Assay type: cell-based, human
Details: Jurkat T cells, P + I

C=CC[C@@H]1/C=C(\C)C[C@H](C)C[C@H](OC)[C@H]2O[C@@](O)(C(=O)C(=O)N3CCCC[C@H]3C(=O)O[C@H](/C(C)=C/[C@@H]3CC[C@@H](O)[C@H](OC)C3)[C@H](C)[C@@H](O)CC1=O)[C@H](C)C[C@@H]2OC [FK506, Tacrolimus, reference compound]
ABTB2 FPKM: 2.549 FPKM
ACAP1 FPKM: 35.261 FPKM
ACSF3 FPKM: 22.755 FPKM
ADA FPKM: 74.531 FPKM
ADAMTS17 FPKM: 0.843 FPKM
ADCYAP1 FPKM: 3.646 FPKM
ADORA2A FPKM: 0.998 FPKM
AFF2 FPKM: 4.374 FPKM
AGK FPKM: 14.029 FPKM
ALDH1A2 FPKM: 7.041 FPKM
ALOX5AP FPKM: 92.971 FPKM
ANKEF1 FPKM: 3.081 FPKM
ANO8 FPKM: 3.26 FPKM
ANTXR2 FPKM: 53.159 FPKM
APH1B FPKM: 5.12 FPKM
APOBEC3B-AS1 FPKM: 13.251 FPKM
APOBEC3F FPKM: 5.861 FPKM
APOBEC3G FPKM: 8.803 FPKM
APOL1 FPKM: 4.036 FPKM
ARHGAP4 FPKM: 15.97 FPKM
ARHGAP25 FPKM: 3.447 FPKM
ARHGAP31 FPKM: 10.889 FPKM
ARHGEF3 FPKM: 8.637 FPKM
ARPP21 FPKM: 1.29 FPKM
ASB13 FPKM: 2.277 FPKM
ASNS FPKM: 20.436 FPKM
ATHL1 FPKM: 4.597 FPKM
ATP2A3 FPKM: 47.81 FPKM
ATP6V0A4 FPKM: 21.385 FPKM
ATP6V1B2 FPKM: 50.672 FPKM
ATPAF1 FPKM: 11.764 FPKM
AVPR2 FPKM: 1.21 FPKM
B2M FPKM: 1155.981 FPKM
BAHCC1 FPKM: 1 FPKM
BCL2A1 FPKM: 21.118 FPKM
BCL2L1 FPKM: 39.402 FPKM
BCL3 FPKM: 14.57 FPKM
BCL6 FPKM: 15.181 FPKM
BCL7A FPKM: 12.185 FPKM
BCL11B FPKM: 3.688 FPKM
BEND6 FPKM: 1.416 FPKM
BIN1 FPKM: 2.374 FPKM
BIRC3 FPKM: 30.767 FPKM
C10orf55 FPKM: 7.632 FPKM
C11orf74 FPKM: 0.365 FPKM
C21orf58 FPKM: 5.847 FPKM
CABP1 FPKM: 1.201 FPKM
CAMK2D FPKM: 5.855 FPKM
CARHSP1 FPKM: 20.082 FPKM
CBFA2T3 FPKM: 12.236 FPKM
CBLB FPKM: 8.881 FPKM
CBS FPKM: 3.935 FPKM
CBX2 FPKM: 2.786 FPKM
CCDC15 FPKM: 3.535 FPKM
CCL3 FPKM: 0 FPKM
CCL3L3 FPKM: 0 FPKM
CCL20 FPKM: 0 FPKM
CCND3 FPKM: 30.402 FPKM
CCNE2 FPKM: 6.298 FPKM
CD1B FPKM: 4.115 FPKM
CD1E FPKM: 4.975 FPKM
CD70 FPKM: 3.005 FPKM
CD82 FPKM: 171.933 FPKM
CD97 FPKM: 19.394 FPKM
CD200 FPKM: 0 FPKM
CD274 FPKM: 7.13 FPKM
CDKN1A FPKM: 39.264 FPKM
CDKN2D FPKM: 17.642 FPKM
CECR1 FPKM: 5.304 FPKM
CENPM FPKM: 13.201 FPKM
CEP70 FPKM: 14.887 FPKM
CERKL FPKM: 13.458 FPKM
CFLAR FPKM: 3.438 FPKM
CHEK2 FPKM: 8.907 FPKM
CHPF2 FPKM: 36.42 FPKM
CHPF FPKM: 9.759 FPKM
CHRNA3 FPKM: 4.293 FPKM
CHST12 FPKM: 13.527 FPKM
CNN2 FPKM: 30.77 FPKM
COL27A1 FPKM: 4.463 FPKM
CPD FPKM: 23.208 FPKM
CREB3L2 FPKM: 5.62 FPKM
CREB5 FPKM: 0.577 FPKM
CSF1 FPKM: 1.706 FPKM
CSF2 FPKM: 0 FPKM
CXCL8 FPKM: 0.937 FPKM
CXCL11 FPKM: 0.695 FPKM
CXCR4 FPKM: 38.979 FPKM
CYTH1 FPKM: 33.17 FPKM
DBP FPKM: 2.396 FPKM
DCBLD2 FPKM: 13.786 FPKM
DENND5A FPKM: 24.792 FPKM
DNAJB5 FPKM: 19.238 FPKM
DSTYK FPKM: 3.501 FPKM
DTL FPKM: 5.862 FPKM
DTX1 FPKM: 4.414 FPKM
DUSP6 FPKM: 9.728 FPKM
DUSP10 FPKM: 11.981 FPKM
E2F7 FPKM: 4.531 FPKM
ECE1 FPKM: 20.046 FPKM
EFHD2 FPKM: 180.233 FPKM
EGR1 FPKM: 218.444 FPKM
EGR2 FPKM: 11.435 FPKM
EHBP1L1 FPKM: 7.073 FPKM
EMP1 FPKM: 4.613 FPKM
ETS1 FPKM: 50.032 FPKM
FADS2 FPKM: 67.903 FPKM
FAM64A FPKM: 7.456 FPKM
FAT1 FPKM: 13.036 FPKM
FBLN2 FPKM: 3.348 FPKM
FKBP5 FPKM: 8.687 FPKM
FLI1 FPKM: 13.241 FPKM
FOSL1 FPKM: 10.499 FPKM
FOSL2 FPKM: 2.204 FPKM
FXYD5 FPKM: 41.346 FPKM
FYN FPKM: 16.523 FPKM
GAD1 FPKM: 2.246 FPKM
GFOD1 FPKM: 4.187 FPKM
GFRA1 FPKM: 0.991 FPKM
GKAP1 FPKM: 2.692 FPKM
GLRB FPKM: 1.62 FPKM
GLRX FPKM: 25.315 FPKM
GNG4 FPKM: 5.365 FPKM
GPC2 FPKM: 5.785 FPKM
GPR17 FPKM: 0.258 FPKM
GPR68 FPKM: 8.916 FPKM
GSE1 FPKM: 17.37 FPKM
GTDC1 FPKM: 4.629 FPKM
GXYLT2 FPKM: 5.443 FPKM
GZMB FPKM: 513.528 FPKM
HCAR1 FPKM: 7.167 FPKM
HIVEP3 FPKM: 20.041 FPKM
HLA-A FPKM: 181.069 FPKM
HLA-B FPKM: 116.079 FPKM
HPGD FPKM: 6.064 FPKM
IFIT3 FPKM: 6.495 FPKM
IKZF2 FPKM: 8.561 FPKM
IL2 FPKM: 0.287 FPKM
IL4R FPKM: 9.842 FPKM
IL10RA FPKM: 2.828 FPKM
IL15 FPKM: 2.654 FPKM
IL15RA FPKM: 5.979 FPKM
IL21R FPKM: 2.244 FPKM
IL21R-AS1 FPKM: 1.927 FPKM
IL27RA FPKM: 10.817 FPKM
IQCJ-SCHIP1 FPKM: 1.657 FPKM
IQGAP2 FPKM: 4.857 FPKM
IRF1 FPKM: 141.607 FPKM
IRF2 FPKM: 34.99 FPKM
IRF4 FPKM: 0.423 FPKM
IRF7 FPKM: 21.167 FPKM
ITGA4 FPKM: 39.099 FPKM
ITGAL FPKM: 10.212 FPKM
ITK FPKM: 58.558 FPKM
JAK2 FPKM: 5.248 FPKM
KCNK1 FPKM: 10.967 FPKM
KIAA0101 FPKM: 21.727 FPKM
KIAA0247 FPKM: 8.032 FPKM
KIR3DX1 FPKM: 3.048 FPKM
KLF10 FPKM: 25.627 FPKM
KLF12 FPKM: 6.506 FPKM
KREMEN1 FPKM: 3.122 FPKM
LAIR1 FPKM: 8.298 FPKM
LDLRAD4 FPKM: 6.21 FPKM
LEF1-AS1 FPKM: 3.747 FPKM
LEF1 FPKM: 74.102 FPKM
LGMN FPKM: 1.42 FPKM
LIF FPKM: 0.143 FPKM
LIMS2 FPKM: 4.122 FPKM
LINC00659 FPKM: 10.239 FPKM
LINC01260 FPKM: 7.672 FPKM
LMNA FPKM: 4.62 FPKM
LMO1 FPKM: 1.094 FPKM
LOC653712 FPKM: 4.163 FPKM
LOC100506688 FPKM: 1.625 FPKM
LOC101926963 FPKM: 4.541 FPKM
LOC101927497 FPKM: 9.413 FPKM
LPAR6 FPKM: 8.449 FPKM
LRRC8C FPKM: 10.058 FPKM
LRRC20 FPKM: 3.843 FPKM
LTBP4 FPKM: 8.427 FPKM
LUCATI FPKM: 12.516 FPKM
MAFF FPKM: 16.977 FPKM
MAGEA4 FPKM: 3.908 FPKM
MAL FPKM: 2.664 FPKM
MAMLD1 FPKM: 5.995 FPKM
MAP3K7CL FPKM: 2.247 FPKM
MAST4 FPKM: 3.498 FPKM
MAZ FPKM: 112.102 FPKM
MCM2 FPKM: 22.07 FPKM
MCTP2 FPKM: 5.326 FPKM
METRN FPKM: 1.779 FPKM
MFAP4 FPKM: 0.663 FPKM
MGAT4A FPKM: 8.906 FPKM
MICAL2 FPKM: 1.763 FPKM
MIR22HG FPKM: 9.248 FPKM
MIR3652 FPKM: 547.182 FPKM
MIR6775 FPKM: 19.643 FPKM
MIR6821 FPKM: 13.626 FPKM
